Data: US10947289B2, “Glyco-modified atrial natriuretic peptide” (priority 2013, dated 2021)
*1 amine or outer side, *2 acyl side, *3 side chain or, on linkers, in order; H or OH if unused. Where a SMILES comes first, the peptide text is derived from it. Bridges are numbered along the chain shown (N, C = ends). [ ]: non-standard residue; d: D form. X2 = CC(=O)N[C@H]1[C@H](O[C@H]2[C@H](O)[C@@H](NC(C)=O)[C@H](OC[C@H](N[*:1])C(=O)[*:2])O[C@@H]2CO)O[C@H](CO)[C@@H](O[C@@H]2O[C@H](CO[C@H]3O[C@H](CO)[C@@H](O)[C@H](O)[C@@H]3O[C@@H]3O[C@H](CO)[C@@H](O[C@@H]4O[C@H](CO[C@]5(C(=O)O)C[C@H](O)[C@@H](NC(C)=O)[C@H]([C@H](O)[C@H](O)CO)O5)[C@H](O)[C@H](O)[C@H]4O)[C@H](O)[C@H]3NC(C)=O)[C@@H](O)[C@H](O[C@H]3O[C@H](CO)[C@@H](O)[C@H](O)[C@@H]3O[C@@H]3O[C@H](CO)[C@@H](O[C@@H]4O[C@H](CO[C@]5(C(=O)O)C[C@H](O)[C@@H](NC(C)=O)[C@H]([C@H](O)[C@H](O)CO)O5)[C@H](O)[C@H](O)[C@H]4O)[C@H](O)[C@H]3NC(C)=O)[C@@H]2O)[C@@H]1O

Target: T1, human GC-A (Homo sapiens, UniProt P16066)
T1 construct: expressed in transfected cells; host or cells: CHO cells
T1 sequence (P16066 33-1061): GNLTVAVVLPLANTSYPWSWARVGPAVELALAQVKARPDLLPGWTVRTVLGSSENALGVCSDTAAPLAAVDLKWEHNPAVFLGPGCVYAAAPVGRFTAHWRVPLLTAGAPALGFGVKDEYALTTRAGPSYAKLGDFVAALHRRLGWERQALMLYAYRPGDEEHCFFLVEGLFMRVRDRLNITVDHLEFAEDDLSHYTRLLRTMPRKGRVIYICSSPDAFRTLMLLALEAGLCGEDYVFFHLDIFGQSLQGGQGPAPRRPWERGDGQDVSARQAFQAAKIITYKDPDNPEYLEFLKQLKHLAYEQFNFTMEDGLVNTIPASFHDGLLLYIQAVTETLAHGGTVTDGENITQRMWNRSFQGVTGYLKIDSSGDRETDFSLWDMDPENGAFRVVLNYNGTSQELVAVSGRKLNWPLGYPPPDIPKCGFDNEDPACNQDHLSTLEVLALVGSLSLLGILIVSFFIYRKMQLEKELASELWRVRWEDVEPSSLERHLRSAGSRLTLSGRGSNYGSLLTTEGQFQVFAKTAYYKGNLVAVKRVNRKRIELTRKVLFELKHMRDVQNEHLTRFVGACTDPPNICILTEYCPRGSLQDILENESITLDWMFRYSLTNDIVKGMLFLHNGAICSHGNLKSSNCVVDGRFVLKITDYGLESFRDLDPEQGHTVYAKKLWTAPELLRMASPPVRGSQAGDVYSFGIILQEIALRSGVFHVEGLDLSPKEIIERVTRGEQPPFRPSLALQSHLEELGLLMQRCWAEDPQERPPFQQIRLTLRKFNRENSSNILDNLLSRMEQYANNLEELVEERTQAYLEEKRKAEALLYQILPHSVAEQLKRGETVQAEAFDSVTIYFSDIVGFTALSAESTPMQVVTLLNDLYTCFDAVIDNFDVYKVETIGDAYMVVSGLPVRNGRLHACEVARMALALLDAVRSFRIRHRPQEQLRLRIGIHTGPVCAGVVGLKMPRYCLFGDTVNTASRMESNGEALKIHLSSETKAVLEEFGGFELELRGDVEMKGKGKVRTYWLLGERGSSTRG
Assay: cGMP elevating activity in CHO/human GC-A cells (Test Example 1)
Format: cell-based
Experimental: The cGMP elevating activity of each modified peptide prepared in Example 2 was measured by the following method:
CHO/human GC-A cells, which are CHO cells constitutively expressing human GC-A, were suspended at 2×10^5 cells/ml in α-MEM, 10% FBS, and 1% penicillin-streptomycin, inoculated at 20 μl/well (4×10^3 cells/well) onto a 384-well plate (Corning, 3826), and cultured overnight in a CO2 incubator. On the next day, the medium was removed from this plate, and then, 1.6 mM IBMX/KRB buffer was added thereto at 10 μl/well. The mixture was stirred on a plate shaker and then incubated at room temperature for 10 minutes. […] The mixture was stirred on a plate shaker and then incubated for 15 minutes in a CO2 incubator. Thereafter, a lysis buffer (50 mM phosphate buffer, pH 7.0, and 1% Triton X-100) was added thereto at 5 μl/well. The cells were lysed by stirring for 10 minutes on a plate shaker. Subsequently, the cGMP levels in the cell lysates were measured by use of a cGMP kit (manufactured by Cisbio Bioassays). Specifically, to a 384-well plate (Greiner, 784076), 5 μl/well of a diluent attached to the kit, 5 μl/well of the cell lysate, 5 μl/well of cGMP-d2, and 5 μl/well of anti cGMP-Cryptate were added. The mixture was stirred on a plate shaker and then incubated overnight at 4° C. in the dark, followed by the measurement of homogeneous time-resolved fluorescence using RubyStar (manufactured by BMG LABTECH JAPAN Ltd.). The activity value (T/C) of the test substance at each concentration was calculated when the activity value of a well supplemented with only a solvent was defined as 0 and the activity value of a well supplemented with 1 nM ANP was defined as 1.

Row | Compound | EC50 [nM]
1 | CC[C@H](C)[C@@H]1NC(=O)[C@H](CCCNC(=N)N)NC(=O)[C@H](CC(=O)O)NC(=O)[C@H](CCSC)NC(=O)[C@H](CCCNC(=N)N)NC(=O)CNC(=O)CNC(=O)[C@H](Cc2ccccc2)NC(=O)[C@@H](NC(=O)[C@H](CO)NC(=O)[C@H](CO)NC(=O)[C@H](CCCNC(=N)N)NC(=O)[C@H](CCCNC(=N)N)NC(=O)[C@H](CC(C)C)NC(=O)[C@@H](N)CC(=O)N[C@@H]2O[C@H](CO)[C@@H](O[C@@H]3O[C@H](CO)[C@@H](O[C@@H]4O[C@H](CO[C@H]5O[C@H](CO)[C@@H](O)[C@H](O)[C@@H]5O[C@@H]5O[C@H](CO)[C@@H](O[C@@H]6O[C@H](CO[C@]7(C(=O)O)C[C@H](O)[C@@H](NC(C)=O)[C@H]([C@H](O)[C@H](O)CO)O7)[C@H](O)[C@H](O)[C@H]6O)[C@H](O)[C@H]5NC(C)=O)[C@@H](O)[C@H](O[C@H]5O[C@H](CO)[C@@H](O)[C@H](O)[C@@H]5O[C@@H]5O[C@H](CO)[C@@H](O[C@@H]6O[C@H](CO[C@]7(C(=O)O)C[C@H](O)[C@@H](NC(C)=O)[C@H]([C@H](O)[C@H](O)CO)O7)[C@H](O)[C@H](O)[C@H]6O)[C@H](O)[C@H]5NC(C)=O)[C@@H]4O)[C@H](O)[C@H]3NC(C)=O)[C@H](O)[C@H]2NC(C)=O)CSSC[C@@H](C(=O)N[C@@H](CC(N)=O)C(=O)N[C@@H](CO)C(=O)N[C@@H](Cc2ccccc2)C(=O)N[C@@H](CCCNC(=N)N)C(=O)N[C@@H](Cc2ccc(O)cc2)C(=O)O)NC(=O)CNC(=O)[C@H](CC(C)C)NC(=O)CNC(=O)[C@H](CO)NC(=O)[C@H](CCC(N)=O)NC(=O)[C@H](C)NC(=O)CNC1=O [Compound 2-4, (SG-)Asn-hANP(2-28)] | 0.08
2 | CC[C@H](C)[C@@H]1NC(=O)[C@H](CCCNC(=N)N)NC(=O)[C@H](CC(=O)O)NC(=O)[C@H](CCSC)NC(=O)[C@H](CCCNC(=N)N)NC(=O)CNC(=O)CNC(=O)[C@H](Cc2ccccc2)NC(=O)[C@@H](NC(=O)[C@H](CO)NC(=O)[C@H](CO)NC(=O)[C@H](CCCNC(=N)N)NC(=O)[C@H](CCCNC(=N)N)NC(=O)[C@H](CC(C)C)NC(=O)[C@@H](N)CO[C@@H]2O[C@H](CO)[C@@H](O[C@@H]3O[C@H](CO)[C@@H](O[C@@H]4O[C@H](CO[C@H]5O[C@H](CO)[C@@H](O)[C@H](O)[C@@H]5O[C@@H]5O[C@H](CO)[C@@H](O[C@@H]6O[C@H](CO[C@]7(C(=O)O)C[C@H](O)[C@@H](NC(C)=O)[C@H]([C@H](O)[C@H](O)CO)O7)[C@H](O)[C@H](O)[C@H]6O)[C@H](O)[C@H]5NC(C)=O)[C@@H](O)[C@H](O[C@H]5O[C@H](CO)[C@@H](O)[C@H](O)[C@@H]5O[C@@H]5O[C@H](CO)[C@@H](O[C@@H]6O[C@H](CO[C@]7(C(=O)O)C[C@H](O)[C@@H](NC(C)=O)[C@H]([C@H](O)[C@H](O)CO)O7)[C@H](O)[C@H](O)[C@H]6O)[C@H](O)[C@H]5NC(C)=O)[C@@H]4O)[C@H](O)[C@H]3NC(C)=O)[C@H](O)[C@H]2NC(C)=O)CSSC[C@@H](C(=O)N[C@@H](CC(N)=O)C(=O)N[C@@H](CO)C(=O)N[C@@H](Cc2ccccc2)C(=O)N[C@@H](CCCNC(=N)N)C(=O)N[C@@H](Cc2ccc(O)cc2)C(=O)O)NC(=O)CNC(=O)[C@H](CC(C)C)NC(=O)CNC(=O)[C@H](CO)NC(=O)[C@H](CCC(N)=O)NC(=O)[C@H](C)NC(=O)CNC1=O [Compound 2-5, (SG-)Ser-hANP(2-28)] (H-[X2]LRRSSCFGGRMDRIGAQSGLGCNSFRY-OH; disulfide 7-23) | 0.082
